Measurements reported in ChEMBL document CHEMBL4665624, “Synthesis of 5-(4-(1H-phenanthro[9,10-d]imidazol-2-yl)benzylidene)thiazolidine-2,4-dione as promising DNA and serum albumin-binding agents and evaluation of antitumor activity” (Eur J Med Chem, 2019).

Columns and labels:
[1] = test system: 786-0; assay: Antitumor activity against human 786-0 cells assessed as cell growth inhibition at 10 uM incubated for 48 hrs by sulforhodamine B assay; format: functional; details: read-out: GI
[2] = test system: U-251; assay: Antitumor activity against human U251 cells assessed as cell growth inhibition at 10 uM incubated for 48 hrs by sulforhodamine B assay; format: functional; details: read-out: GI
[3] = test system: PC-3; assay: Antitumor activity against human PC-3 cells assessed as cell growth inhibition at 10 uM incubated for 48 hrs by sulforhodamine B assay; format: functional; details: read-out: GI
[4] = test system: SR; assay: Antitumor activity against human SR cells assessed as cell growth inhibition at 10 uM incubated for 48 hrs by sulforhodamine B assay; format: functional; details: read-out: GI
[5] = test system: OVCAR-4; assay: Antitumor activity against human OVCAR-4 cells assessed as cell growth inhibition at 10 uM incubated for 48 hrs by sulforhodamine B assay; format: functional; details: read-out: GI
[6] = test system: NCI-H226; assay: Antitumor activity against human NCI-H226 assessed as cell growth inhibition at 10 uM incubated for 48 hrs by sulforhodamine B assay; format: functional; details: read-out: GI
[7] = test system: IGROV-1; assay: Antitumor activity against human IGROV1 cells assessed as cell growth inhibition at 10 uM incubated for 48 hrs by sulforhodamine B assay; format: functional; details: read-out: GI
[8] = test system: HCT-15; assay: Antitumor activity against human HCT15 cells assessed as cell growth inhibition at 10 uM incubated for 48 hrs by sulforhodamine B assay; format: functional; details: read-out: GI
[9] = test system: SN12C; assay: Antitumor activity against human SN12C cells assessed as cell growth inhibition at 10 uM incubated for 48 hrs by sulforhodamine B assay; format: functional; details: read-out: GI
[10] = test system: HOP-92; assay: Antitumor activity against human HOP92 cells assessed as cell growth inhibition at 10 uM incubated for 48 hrs by sulforhodamine B assay; format: functional; details: read-out: GI
[11] = test system: SK-OV-3; assay: Antitumor activity against human SK-OV-3 cells assessed as cell growth inhibition at 10 uM incubated for 48 hrs by sulforhodamine B assay; format: functional; details: read-out: GI
[12] = test system: COLO 205; assay: Antitumor activity against human COLO205 cells assessed as cell growth inhibition at 10 uM incubated for 48 hrs by sulforhodamine B assay; format: functional; details: read-out: GI
[13] = test system: A498; assay: Antitumor activity against human A498 cells assessed as cell growth inhibition at 10 uM incubated for 48 hrs by sulforhodamine B assay; format: functional; details: read-out: GI
[14] = test system: HT-29; assay: Antitumor activity against human HT-29 cells assessed as cell growth inhibition at 10 uM incubated for 48 hrs by sulforhodamine B assay; format: functional; details: read-out: GI
[15] = test system: MCF7; assay: Antitumor activity against human MCF7 cells assessed as cell growth inhibition at 10 uM incubated for 48 hrs by sulforhodamine B assay; format: functional; details: read-out: GI
[16] = test system: K562; assay: Antitumor activity against human K562 cells assessed as cell growth inhibition at 10 uM incubated for 48 hrs by sulforhodamine B assay; format: functional; details: read-out: GI
[17] = test system: Malme-3M; assay: Antitumor activity against human MALME-3M cells assessed as cell growth inhibition at 10 uM incubated for 48 hrs by sulforhodamine B assay; format: functional; details: read-out: GI
[18] = test system: EKVX; assay: Antitumor activity against human EKVX cells assessed as cell growth inhibition at 10 uM incubated for 48 hrs by sulforhodamine B assay; format: functional; details: read-out: GI
[19] = test system: HCT-116; assay: Antitumor activity against human HCT116 cells assessed as cell growth inhibition at 10 uM incubated for 48 hrs by sulforhodamine B assay; format: functional; details: read-out: GI
[20] = test system: MDA-MB-468; assay: Antitumor activity against human MDA-MB-468 cells assessed as cell growth inhibition at 10 uM incubated for 48 hrs by sulforhodamine B assay; format: functional; details: read-out: GI
[21] = test system: HCC 2998; assay: Antitumor activity against human HCC2998 cells assessed as cell growth inhibition at 10 uM incubated for 48 hrs by sulforhodamine B assay; format: functional; details: read-out: GI
[22] = test system: M14; assay: Antitumor activity against human M14 cells assessed as cell growth inhibition at 10 uM incubated for 48 hrs by sulforhodamine B assay; format: functional; details: read-out: GI
[23] = test system: HL-60(TB); assay: Antitumor activity against human HL-60(TB) cells assessed as cell growth inhibition at 10 uM incubated for 48 hrs by sulforhodamine B assay; format: functional; details: read-out: GI
[24] = test system: OVCAR-3; assay: Antitumor activity against human OVCAR-3 cells assessed as cell growth inhibition at 10 uM incubated for 48 hrs by sulforhodamine B assay; format: functional; details: read-out: GI
[25] = test system: ACHN; assay: Antitumor activity against human ACHN cells assessed as cell growth inhibition at 10 uM incubated for 48 hrs by sulforhodamine B assay; format: functional; details: read-out: GI
[26] = test system: NCI-H23; assay: Antitumor activity against human NCI-H23 cells assessed as cell growth inhibition at 10 uM incubated for 48 hrs by sulforhodamine B assay; format: functional; details: read-out: GI
[27] = test system: NCI/ADR-RES; assay: Antitumor activity against human NCI/ADR-RES cells assessed as cell growth inhibition at 10 uM incubated for 48 hrs by sulforhodamine B assay; format: functional; details: read-out: GI
[28] = test system: RPMI-8226; assay: Antitumor activity against human RPMI8226 cells assessed as cell growth inhibition at 10 uM incubated for 48 hrs by sulforhodamine B assay; format: functional; details: read-out: GI
[29] = test system: LOX IMVI; assay: Antitumor activity against human LOX IMVI cells assessed as cell growth inhibition at 10 uM incubated for 48 hrs by sulforhodamine B assay; format: functional; details: read-out: GI
[30] = test system: BT-549; assay: Antitumor activity against human BT-549 cells assessed as cell growth inhibition at 10 uM incubated for 48 hrs by sulforhodamine B assay; format: functional; details: read-out: GI
[31] = test system: OVCAR-8; assay: Antitumor activity against human OVCAR-8 cells assessed as cell growth inhibition at 10 uM incubated for 48 hrs by sulforhodamine B assay; format: functional; details: read-out: GI
[32] = test system: SW-620; assay: Antitumor activity against human SW620 cells assessed as cell growth inhibition at 10 uM incubated for 48 hrs by sulforhodamine B assay; details: SW-620, 48 h, read-out: GI
[33] = test system: MDA-MB-435; assay: Antitumor activity against human MDA-MB-435 cells assessed as cell growth inhibition at 10 uM incubated for 48 hrs by sulforhodamine B assay; format: functional; details: read-out: GI
[34] = test system: UO-31; assay: Antitumor activity against human UO-31 cells assessed as cell growth inhibition at 10 uM incubated for 48 hrs by sulforhodamine B assay; format: functional; details: read-out: GI
[35] = test system: Hs-578T; assay: Antitumor activity against human HS 578T cells assessed as cell growth inhibition at 10 uM incubated for 48 hrs by sulforhodamine B assay; format: functional; details: read-out: GI
[36] = test system: NCI-H460; assay: Antitumor activity against human NCI-H460 assessed as cell growth inhibition at 10 uM incubated for 48 hrs by sulforhodamine B assay; format: functional; details: read-out: GI
[37] = test system: SF-268; assay: Antitumor activity against human SF268 cells assessed as cell growth inhibition at 10 uM incubated for 48 hrs by sulforhodamine B assay; format: functional; details: read-out: GI
[38] = test system: NCI-H522; assay: Antitumor activity against human NCI-H522 cells assessed as cell growth inhibition at 10 uM incubated for 48 hrs by sulforhodamine B assay; format: functional; details: read-out: GI
[39] = test system: MDA-MB-231; assay: Antitumor activity against human MDA-MB-231/ATCC cells assessed as cell growth inhibition at 10 uM incubated for 48 hrs by sulforhodamine B assay; format: functional; details: read-out: GI
[40] = test system: RXF 393; assay: Antitumor activity against human RXF 393 cells assessed as cell growth inhibition at 10 uM incubated for 48 hrs by sulforhodamine B assay; format: functional; details: read-out: GI
[41] = test system: CCRF-CEM; assay: Antitumor activity against human CCRF-CEM cells assessed as cell growth inhibition at 10 uM incubated for 48 hrs by sulforhodamine B assay; format: functional; details: read-out: GI
[42] = test system: KM12; assay: Antitumor activity against human KM12 cells assessed as cell growth inhibition at 10 uM incubated for 48 hrs by sulforhodamine B assay; format: functional; details: read-out: GI
[43] = test system: MOLT-4; assay: Antitumor activity against human MOLT4 cells assessed as cell growth inhibition at 10 uM incubated for 48 hrs by sulforhodamine B assay; format: functional; details: read-out: GI
[44] = test system: SNB-19; assay: Antitumor activity against human SNB-19 cells assessed as cell growth inhibition at 10 uM incubated for 48 hrs by sulforhodamine B assay; format: functional; details: read-out: GI
[45] = test system: UACC-62; assay: Antitumor activity against human UACC-62 cells assessed as cell growth inhibition at 10 uM incubated for 48 hrs by sulforhodamine B assay; format: functional; details: read-out: GI
[46] = test system: SF-295; assay: Antitumor activity against human SF295 cells assessed as cell growth inhibition at 10 uM incubated for 48 hrs by sulforhodamine B assay; format: functional; details: read-out: GI
[47] = test system: SK-MEL-28; assay: Antitumor activity against human SK-MEL-28 cells assessed as cell growth inhibition at 10 uM incubated for 48 hrs by sulforhodamine B assay; format: functional; details: read-out: GI
[48] = test system: SNB-75; assay: Antitumor activity against human SNB-75 cells assessed as cell growth inhibition at 10 uM incubated for 48 hrs by sulforhodamine B assay; format: functional; details: read-out: GI

c1cc2ccc3ccc(-c4nc5c6ccccc6c6ccccc6c5[nH]4)c4ccc(c1)c2c34
inhibition of growth at 10 µM [1]: < 10% | inhibition of growth at 10 µM [2]: < 10% | inhibition of growth at 10 µM [3]: 21.2% | inhibition of growth at 10 µM [4]: 23.7% | inhibition of growth at 10 µM [5]: < 10% | inhibition of growth at 10 µM [6]: 76.2% | inhibition of growth at 10 µM [7]: 13.2% | inhibition of growth at 10 µM [8]: < 10% | inhibition of growth at 10 µM [9]: < 10% | inhibition of growth at 10 µM [10]: 27.1% | inhibition of growth at 10 µM [11]: < 10% | inhibition of growth at 10 µM [12]: < 10% | inhibition of growth at 10 µM [13]: 36.3% | inhibition of growth at 10 µM [14]: < 10% | inhibition of growth at 10 µM [15]: 23.1% | inhibition of growth at 10 µM [16]: < 10% | inhibition of growth at 10 µM [17]: < 10% | inhibition of growth at 10 µM [18]: < 10% | inhibition of growth at 10 µM [19]: 16.6% | inhibition of growth at 10 µM [20]: 78.1% | inhibition of growth at 10 µM [21]: < 10% | inhibition of growth at 10 µM [22]: < 10% | inhibition of growth at 10 µM [23]: < 10% | inhibition of growth at 10 µM [24]: < 10% | inhibition of growth at 10 µM [25]: 10.3% | inhibition of growth at 10 µM [26]: < 10% | inhibition of growth at 10 µM [27]: < 10% | inhibition of growth at 10 µM [28]: 10.6% | inhibition of growth at 10 µM [29]: 13.7% | inhibition of growth at 10 µM [30]: < 10% | inhibition of growth at 10 µM [31]: < 10% | inhibition of growth at 10 µM [32]: < 10% | inhibition of growth at 10 µM [33]: < 10% | inhibition of growth at 10 µM [34]: 37.2% | inhibition of growth at 10 µM [35]: < 10% | inhibition of growth at 10 µM [36]: < 10% | inhibition of growth at 10 µM [37]: 14.6% | inhibition of growth at 10 µM [38]: 17.5% | inhibition of growth at 10 µM [39]: 23.2% | inhibition of growth at 10 µM [40]: < 10% | inhibition of growth at 10 µM [41]: 10.3% | inhibition of growth at 10 µM [42]: 13.5% | inhibition of growth at 10 µM [43]: 26.8% | inhibition of growth at 10 µM [44]: < 10% | inhibition of growth at 10 µM [45]: 38.4% | inhibition of growth at 10 µM [46]: < 10% | inhibition of growth at 10 µM [47]: < 10% | inhibition of growth at 10 µM [48]: < 10%
